ChEMBL document CHEMBL1141018, “Synthesis and biological evaluation of homopiperazine derivatives with beta-aminoacyl group as dipeptidyl peptidase IV inhibitors” (Bioorg Med Chem Lett, 2008)

target: Dipeptidyl peptidase 2 (Homo sapiens, UniProt Q9UHL4); assay: Inhibition of DPP2

SMILES	IC50 [nM]
N[C@@H](CC(=O)N1CCCN(C(=O)c2cccc(C(=O)O)c2)CC1)Cc1cc(F)c(F)cc1F	46800
N[C@@H](CC(=O)N1CCCN(C(=O)c2cncc(C(=O)O)c2)CC1)Cc1cc(F)c(F)cc1F	99400

target: Dipeptidyl peptidase 4 (Homo sapiens, UniProt P27487)
Sequence (P27487 whole entry): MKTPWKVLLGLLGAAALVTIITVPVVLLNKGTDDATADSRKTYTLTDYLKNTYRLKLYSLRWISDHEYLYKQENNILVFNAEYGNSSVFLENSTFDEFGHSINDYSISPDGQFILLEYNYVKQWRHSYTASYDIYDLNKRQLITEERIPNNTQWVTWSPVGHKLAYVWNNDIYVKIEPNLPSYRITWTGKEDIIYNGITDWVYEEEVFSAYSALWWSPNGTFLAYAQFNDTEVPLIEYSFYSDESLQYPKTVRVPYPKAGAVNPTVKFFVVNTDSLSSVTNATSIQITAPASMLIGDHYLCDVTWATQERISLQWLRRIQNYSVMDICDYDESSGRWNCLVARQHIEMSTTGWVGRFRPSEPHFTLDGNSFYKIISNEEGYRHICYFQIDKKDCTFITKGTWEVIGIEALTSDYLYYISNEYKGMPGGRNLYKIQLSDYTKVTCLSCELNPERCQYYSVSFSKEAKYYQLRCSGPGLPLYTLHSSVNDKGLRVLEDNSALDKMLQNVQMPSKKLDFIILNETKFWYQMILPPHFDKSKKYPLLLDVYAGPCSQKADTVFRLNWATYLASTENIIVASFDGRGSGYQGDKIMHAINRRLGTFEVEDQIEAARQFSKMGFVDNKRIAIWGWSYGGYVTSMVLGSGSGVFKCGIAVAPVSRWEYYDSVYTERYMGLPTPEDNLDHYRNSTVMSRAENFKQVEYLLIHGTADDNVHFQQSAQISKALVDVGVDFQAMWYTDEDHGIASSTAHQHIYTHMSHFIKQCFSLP

SMILES	IC50 [nM]
N[C@@H](CC(=O)N1CCCN(C(=O)c2cccc(C(=O)O)c2)CC1)Cc1cc(F)c(F)cc1F	50
Cc1ccc(S(=O)(=O)N2CCCN(C(=O)C[C@H](N)Cc3cc(F)c(F)cc3F)CC2)cc1	350
CCN1CCCN(C(=O)C[C@H](N)Cc2cc(F)c(F)cc2F)CC1	6400
N[C@@H](CC(=O)N1CCCN(S(=O)(=O)c2ccc(C(=O)O)cc2)CC1)Cc1cc(F)c(F)cc1F	239
N[C@@H](CC(=O)N1CCCN(C(=O)Nc2ccc(C(=O)O)cc2)CC1)Cc1cc(F)c(F)cc1F	788
CC(=O)N1CCCN(C(=O)C[C@H](N)Cc2cc(F)c(F)cc2F)CC1	3400
N[C@@H](CC(=O)N1CCCN(C(=O)c2ccccc2)CC1)Cc1cc(F)c(F)cc1F	510
N[C@@H](CC(=O)N1CCCNCC1)Cc1cc(F)c(F)cc1F	1440
N[C@@H](CC(=O)N1CCCN(C(=O)c2cncc(C(=O)O)c2)CC1)Cc1cc(F)c(F)cc1F	67
CS(=O)(=O)N1CCCN(C(=O)C[C@H](N)Cc2cc(F)c(F)cc2F)CC1	3100
N[C@@H](CC(=O)N1CCCN(c2ncccn2)CC1)Cc1cc(F)c(F)cc1F	597
NC(=O)c1ccc(C(=O)N2CCCN(C(=O)C[C@H](N)Cc3cc(F)c(F)cc3F)CC2)cc1	180
N[C@@H](CC(=O)N1CCCN(C(=O)c2ccc(S(N)(=O)=O)cc2)CC1)Cc1cc(F)c(F)cc1F	288
N[C@@H](CC(=O)N1CCCN(C(=O)c2ccc3c(c2)OCO3)CC1)Cc1cc(F)c(F)cc1F	490
N[C@@H](CC(=O)N1CCCN(C(=O)c2cccnc2)CC1)Cc1cc(F)c(F)cc1F	410
N[C@@H](CC(=O)N1CCCN(C(=O)c2ccc(C(=O)O)o2)CC1)Cc1cc(F)c(F)cc1F	260
N[C@@H](CC(=O)N1CCCN(S(=O)(=O)c2ccc([N+](=O)[O-])cc2)CC1)Cc1cc(F)c(F)cc1F	405
N[C@@H](CC(=O)N1CCCN(C(=O)Nc2ccccc2)CC1)Cc1cc(F)c(F)cc1F	1390
N[C@@H](CC(=O)N1CCCN(C(=O)OCc2ccccc2)CC1)Cc1cc(F)c(F)cc1F	490
CN1CCN(C(=O)N2CCCN(C(=O)C[C@H](N)Cc3cc(F)c(F)cc3F)CC2)CC1	1500
N[C@@H](CC(=O)N1CCCN(C(=O)c2ccc(C(=O)O)nc2)CC1)Cc1cc(F)c(F)cc1F	150
N[C@@H](CC(=O)N1CCCN(Cc2ccccc2)CC1)Cc1cc(F)c(F)cc1F	387
N[C@@H](CC(=O)N1CCCN(c2cnccn2)CC1)Cc1cc(F)c(F)cc1F	423
